Measurements taken from patent publication US11248020B2, “Oligonucleotide compositions and methods for treating diseases” (priority 2017, dated 2022).

Legend:
[1] = test system: Alzheimer's Disease; experiment: Alzheimer's disease patients scored by MMSE and ADAScog; format: in vivo, human; details: average values per group
Method: In the first control group, the patients received conventional therapy, i.e., a reversible, noncompetitive glutamate receptors antagonist Memantine (10 mg per day). In the second control group the patients received placebo. Test group #4, and Test group #5 received compositions #4 and 5, respectively, in the form of extended release sublingual tablets (also comprising 12% hypromellose; 10% lactose monohydrate; 60% carbopol; 8% Polycarbophil; 10% starch-based gel) used 2 time a day. The patients were scored according to MMSE (Mini-Mental State Examination) and ADAScog (assessment of cognitive impairment) scales. 12 groups of 4 people were formed.

[2] = test system: colon cancer; experiment: Azoxymethane colon cancer model in rats after total colectomy: recurrences, metastases, survival; format: in vivo, male albino Wistar rats
Method: The studies were performed in male albino Wistar rats (Rappolovo breeding nursery), aged 14 weeks, weighing 180-190 g. Prior to the study period, animals (n=600) were kept in identical conditions, and received the same diet. For modeling colon cancer, the animals received Azoxymethane (Sigma) in the amount of 10 mg/kg (in 0.9% NaCl) for 12 weeks. In 26 weeks, the abdomen of anesthetized animals was opened, and the presence and size of colon tumors and metastases was visually assessed. Animals bearing neoplasms of more than 3 mm in diameter and having no observed metastases (360 animals) were subjected to total colectomy. In 2 days after surgery, mono- and/or oligonucleotide mixtures were administered either parenterally (via IV) or enterally (with drinking water). Each group consisted of 20 animals. In 8 weeks, surviving animals were sacrificed (animals were randomized into groups with 10 surviving animals per group), and the recurrence rates and presence of metastases was evaluated.
Enteral Administration The first control group received no treatment. Test group #1, Test group #2, Test group #3, Test group #4, Test group #5, and Test group #6 received mixtures of mono- and/or oligonucleotides (from 1 to 100,000 mcg/kg/day) prepared with the use of different nucleases, as specified in Table 2, below:
The first control group received no treatment. The second control group received conventional therapy consisting of 5-fluorouracil (5 mg/kg/day). Test group #1, Test group #2, Test group #3, Test group #4, and Test group #5 were administered (from 1 to 100,000 mcg/kg/day for 30 days).

[3] = enteral administration (with drinking water), evaluated in 8 weeks
[4] = parenteral administration (via IV), 30 days

Row | Compound | Patients score ADAScog ([1]; in 30 days) | Patients score MMSE ([1]; in 30 days) | Patients score ADAScog ([1]; in 90 days) | Patients score MMSE ([1]; in 90 days) | Patients score ADAScog ([1]; pre-treatment) | Patients score MMSE ([1]; pre-treatment) | No. of animals in the group with recurrences or metastases [2, 3] | No. of animals with metastasis [2, 3] | No. of surviving animals/Total No. per group ([2]; enteral administration (with drinking water), in 8 weeks) | No. of animals in the group with recurrences or metastases [2, 4] | No. of animals with metastasis [2, 4] | No. of surviving animals/Total No. of animals per group [2, 4]
1 | CC12CC3CC(C)(C1)CC(N)(C3)C2 [1st control group, Memantine] | 37 | 15 | 37 | 16 | 41 | 13 |  |  |  |  |  | 
2 | O=c1[nH]cc(F)c(=O)[nH]1 [2nd control, 5-fluorouracil] |  |  |  |  |  |  | 4 | 7 | 13/20 | 4 | 6 | 14/20
